# According to patent US20230058316A1, “PEGYLATED IGE-DEPENDENT HISTAMINE-RELEASING FACTOR (HRF)-BINDING PEPTIDE AND USE THEREOF” (EWHA UNIVERSITY - INDUSTRY COLLABORATION FOUNDATION, priority 2020, published 2023):
# Where no end group is shown, it is not given here.
# Test system: IL-4
# Assay: IL-4 secretion in bronchoalveolar lavage fluid, ovalbumin-induced bronchial asthma and rhinitis mouse model
# Format: in vivo
# Conditions: 1 mg/kg IP
# Method: A bronchial asthma and rhinitis animal model was prepared by the following method. An ovalbumin solution was prepared by dissolving ovalbumin in an aluminum hydroxide solution (1 mg/ml) 28 and 14 days before the start of inducing bronchial asthma and rhinitis, and 200 μl of the solution was intraperitoneally injected into each mouse for sensitization. After 14 days of final sensitization, 20 μl of saline/PBS (normal control; NC) or 20 μl of 10 mg/mL ovalbumin solution (positive control; PC) was instilled into the nasal cavity of each lightly anesthetized mouse 4 times every other day for 8 days to induce bronchial asthma and rhinitis.
# After the end of the experiment, the amount of IL-4 in the supernatant obtained by centrifuging bronchoalveolar lavage fluid was measured and quantified by enzyme immunosorbent detection using mouse IL-4 ELISA kit (Biolegend, USA).
# Next, in order to confirm whether there is an effect of inhibiting IL-4 secretion even when administered in a small number of times, the dTBP2 of Preparative Example 4 and Example 3 was administered to the mouse model of Example 4-1 through intraperitoneal injection once in 4 days for a total of 2 times for 8 days inducing bronchial asthma and rhinitis. The amount of IL-4 was measured and quantified by the enzyme immunosorbent detection method in the same manner.
# In addition, the dTBP2 of Preparative Example 4 and Example 3 was administered to the mouse model of Example 4-1 through intraperitoneal injection once on the 1st day of 8 days inducing bronchial asthma and rhinitis. The amount of IL-4 was measured and quantified by the enzyme immunosorbent detection method in the same manner.
# The amount of IL-4 was measured and quantified by the enzyme immunosorbent detection method in the same manner.
substance,measurement,setting,value
Example 3: dTBP2 (WYVYPSM) conjugated at the N-terminal with methoxy polyethylene glycol propionaldehyde (10 kDa) ({mPEG propionaldehyde 10 kDa}-WYVYPSM),reduction of IL-4 secretion,"8 times daily for 8 days, FIG. 14",about 60%
same,inhibiting IL-4 secretion,once in 4 days for a total of 2 times (FIG. 15) and once on the 1st day (FIG. 16),effective
same,IL-4 secretion inhibitory effect,"once on the 5th day of 8 days, FIG. 17",effectively inhibited
